In patent US20210260141A1, “MSC- AND EXOSOME-BASED IMMUNOTHERAPY” (EXOSTEM BIOTEC LTD., priority 2018, published 2021):

B1: miR-34: microRNA; pre-miR SEQ ID NO: 10, mature 5p SEQ ID NO: 11, 3p SEQ ID NO: 12 (nucleic acid, listed as Homo sapiens)
chain: UGGCAGUGUCUUAGCUGGUUGUUGUGAGCAAUAGUAAGGAAGCAAUCAGCAAGUAUACUGCCCUA
modifications: expressed or natural sequence

Columns and labels:
Assay type in all cases: cell-based
[1] = test system: PD-1 3′ UTR; assay: PD-1 3′ UTR luciferase reporter in HEK293 cells; conditions: miR transfected in CH-MSCs; same whether cocultured or exosomes added
Method: PD-L1 is only half of the immune surveillance axis, its receptor PD-1 is expressed on immune cells and is required for cancer cell immune inhibition. […] CH-MSCs were also transfected with miR-124, miR-34, miR-30b and a combination of all three and then PD-1 expression was assessed. […] The effect was the same whether cells were cocultured, or whether exosomes were added. miR-34 has already been reported to target PD-L1, thus this miR and miR-124 are both effective at targeting both sides of the PD-L1/PD-1 axis.

[2] = test system: 3′ UTR of PD-L1; assay: PD-L1 3′ UTR luciferase reporter in GSCs cocultured with MSCs or treated with their exosomes; conditions: pre-miR expressed in CH-, AD- and UC-MSCs, trans-well coculture with GSCs
[3] = test system: glioma stem cells (GSCs); assay: self-renewal of GSCs (secondary neurosphere formation) after coculture with MSCs or addition of their exosomes; conditions: trans-well coculture
[4] = miR expressed in CH- and UC-MSCs

Row | Molecule | effect on PD-1 reduction (luciferase reporter) [1] | luciferase expression (PD-L1 reporter) [2] | effect on self-renewal of GSCs ([3]; miR expressed in AD-MSCs) | effect on self-renewal of GSCs [3, 4]
1 | miR-30b: microRNA; pre-miR SEQ ID NO: 13, mature 5p SEQ ID NO: 14, 3p SEQ ID NO: 15 (UGUAAACAUCCUACACUCAGCUGUAAUACAUGGAUUGGCUGGGAGGUGGAUGUUUACUUC; expressed or natural sequence; listed as Homo sapiens) | enhanced the PD-1 reduction | – | – | –
2 | miR-378: microRNA; pre-miR SEQ ID NO: 32, mature 5p SEQ ID NO: 33, 3p SEQ ID NO: 34 (CUCCUGACUCCAGGUCCUGUGUGUUACCUAGAAAUAGCACUGGACUUGGAGUCAGAAGGC; expressed or natural sequence; listed as Homo sapiens) | – | decreased luciferase expression | more pronounced effect | negligible effect
3 | miR-29c: microRNA; pre-miR SEQ ID NO: 4, mature 5p SEQ ID NO: 5, 3p SEQ ID NO: 6 (ACCGAUUUCUCCUGGUGUUCAGAGUCUGUUUUUGUCUAGCACCAUUUGAAAUCGGUUA; expressed or natural sequence; listed as Homo sapiens) | – | decreased luciferase expression | more pronounced effect | negligible effect
4 | B1 | enhanced the PD-1 reduction | – | – | –
